Data set [1] is described as follows: Urinary excretion. It counts as in vivo. The note with it: rat; rats, oral administration of 100 mg/kg, urine 0 to 6 and 6 to 24 hours, bioassay; read-out: Urinary recovery in 24 hours (%).
Experimental: Urine of rats was collected with a urine collector at 0 to 6, and 6 to 24 hours after oral administration of 100 mg/kg of the test antibiotic. The antibiotic levels in the urine samples were bioassayed with the standard solution prepared with M/15 phosphate buffer (pH 7.0) and the urinary recovery in 24 hours was calculated.
In data set [2] the test system is Proteus vulgaris 2. The experiment in a line: Minimal inhibitory concentration, two-fold agar-plate dilution method. In kind it is cell-based. Conditions: HI-agar, 37° C., 20 hours. On the procedure: (§1) (A) Minimal inhibitory concentration (1) Test Method In vitro antibacterial activity was determined by the two-fold agar-plate dilution method as described below. One loopful of an overnight culture of each test strain in Trypticase-soy broth (10^8 viable cells per ml) was streaked on heart infusion agar (HI-agar) containing graded concentrations of representative test compound, and the minimal inhibitory concentration (MIC) was expressed in terms of μg/ml after incubation at 37° C. for 20 hours.

For data set [3], the system named is Proteus mirabilis 18. The description is as above. It counts as cell-based. Conditions: HI-agar, 37° C., 20 hours. As to the method:
as §1

Data set [4] is described as follows: in vivo. Conditions: rat, po, 100 mg/kg.
Experimental: Rats anesthetized with pentobarbital were fixed in supine position, and a polyethylene cannula was inserted into the bile duct. Bile samples were collected at 0 to 3, 3 to 6, and 6 to 24 hours after oral administration of 100 mg/kg of the test antibiotic. The antibiotic levels in the bile samples were bioassayed with the standard solutions prepared with M/15 phosphate buffer (pH 7.0) and the biliary recovery in 24 hours were calculated.

Structures are written as SMILES.

As a reminder, the MIC is the least concentration at which growth counts as inhibited. A higher MIC goes with a need for much substance. Regarding `O=C(O)CO/N=C(\C(=O)NC1C(=O)N2C(C(=O)O)=C(CSc3ccc4nnnn4n3)CSC12)c1cscn1` (stereo not drawn) [Test Compound (1), 7-[2-Carboxymethoxyimino-2-(4-thiazolyl)acetamido]-3-(tetrazolo[1,5-b]pyridazin-6-yl)thiomethyl-3-cephem-4-carboxylic acid (syn isomer)], the dose excreted at 24 h in data set [1] is 20.2%; in data set [4], 8.97%. The MIC in data set [2] and in data set [3] was below 0.025 µg/mL throughout.

For the origin of these results see patent US4499088A, “Cephem compounds” (Fujisawa Pharmaceutical Co., Ltd., priority 1983, dated 1985).
